According to the supplement of paper PMC11061612:

Columns and labels:
SN-38 = compound: CCc1c2c(nc3ccc(O)cc13)-c1cc3c(c(=O)n1C2)COC(=O)[C@]3(O)CC [SN-38]; conditions: max 0.3 µM
Procedure, shortened: (§1)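 Following 24 hours at 37°C and 5% CO2, cancer cell lines in 1536-well plates with 7.5 μl DMEM/F12 or RPMI and 10% FBS were dosed for 72 hours, final DMSO typically being 0.2%. CellTiter-Glo 2.0 luminescence, scaled between blank-well and DMSO-well means, gave the viability readout. Dose responses were fitted to a two-parameter logistic curve with a non-linear mixed effects model, and the single-agent IC50 was derived from this fit.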

AZD1390 = compound: CC(C)n1c(=O)n(C)c2cnc3cc(F)c(-c4ccc(OCCCN5CCCCC5)nc4)cc3c21 [AZD1390]; conditions: max 0.3 µM
Procedure, shortened: as §1

Taselisib = compound: Cc1nc(-c2cn3c(n2)-c2ccc(-c4cnn(C(C)(C)C(N)=O)c4)cc2OCC3)n(C(C)C)n1 [Taselisib]; conditions: max 10 µM
Procedure, shortened: as §1

AZD0156 = compound: CN(C)CCCOc1ccc(-c2ccc3ncc4c(c3c2)n(C2CCOCC2)c(=O)n4C)cn1 [AZD0156]; conditions: max 3 µM
Procedure, shortened: as §1

Dasatinib = compound: CC1=C(C(=CC=C1)Cl)NC(=O)C2=CN=C(S2)NC3=CC(=NC(=N3)C)N4CCN(CC4)CCO [Dasatinib]; conditions: max 2 µM
Procedure, shortened: as §1

AZD8186 = compound: C[C@@H](Nc1cc(F)cc(F)c1)c1cc(C(=O)N(C)C)cc2c(=O)cc(N3CCOCC3)oc12 [AZD8186]; conditions: max 3 µM
Procedure, shortened: as §1

AZD5153 = compound: COc1nnc2ccc(N3CCC(c4ccc(OCCN5CCN(C)C(=O)[C@H]5C)cc4)CC3)nn12 [AZD5153]; conditions: max 1 µM
Procedure, shortened: as §1

Prexasertib = compound: COc1cccc(OCCCN)c1-c1cc(Nc2cnc(C#N)cn2)n[nH]1 [Prexasertib]; conditions: max 1 µM
Procedure, shortened: as §1

Alisertib = compound: COc1cc(Nc2ncc3c(n2)-c2ccc(Cl)cc2C(c2c(F)cccc2OC)=NC3)ccc1C(=O)O [Alisertib]; conditions: max 10 µM
Procedure, shortened: as §1

AZD5991 = compound: Cc1c2c(nn1C)CSCc1cc(n(C)n1)CSc1cc(c3ccccc3c1)OCCCc1c(C(=O)O)n(C)c3c-2c(Cl)ccc13 [AZD5991]; conditions: max 1 µM
Procedure, shortened: as §1

Lapatinib = compound: CS(=O)(=O)CCNCc1ccc(-c2ccc3ncnc(Nc4ccc(OCc5cccc(F)c5)c(Cl)c4)c3c2)o1 [Lapatinib]; conditions: max 10 µM
Procedure, shortened: as §1

SG3199 = compound: CC1=CN2[C@@H](C1)C=NC3=CC(=C(C=C3C2=O)OC)OCCCCCOC4=C(C=C5C(=C4)N=C[C@@H]6CC(=CN6C5=O)C)OC [SG3199]; conditions: max 0.001 µM
Procedure, shortened: as §1

AZD1775 = compound: C=CCn1c(=O)c2cnc(Nc3ccc(N4CCN(C)CC4)cc3)nc2n1-c1cccc(C(C)(C)O)n1 [AZD1775]; conditions: max 3 µM
Procedure, shortened: as §1

Palbociclib = compound: CC(=O)c1c(C)c2cnc(Nc3ccc(N4CCNCC4)cn3)nc2n(C2CCCC2)c1=O [Palbociclib]; conditions: max 10 µM
Procedure, shortened: as §1

Crizotinib = compound: C[C@@H](Oc1cc(-c2cnn(C3CCNCC3)c2)cnc1N)c1c(Cl)ccc(F)c1Cl [Crizotinib]; conditions: max 10 µM
Procedure, shortened: as §1

Gefitinib = compound: COc1cc2ncnc(Nc3ccc(F)c(Cl)c3)c2cc1OCCCN1CCOCC1 [Gefitinib]; conditions: max 10 µM
Procedure, shortened: as §1

Trametinib = compound: CC(=O)Nc1cccc(-n2c(=O)n(C3CC3)c(=O)c3c(Nc4ccc(I)cc4F)n(C)c(=O)c(C)c32)c1 [Trametinib]; conditions: max 1 µM
Procedure, shortened: as §1

Savolitinib = compound: C[C@@H](c1ccc2nccn2c1)n1nnc2ncc(-c3cnn(C)c3)nc21 [Savolitinib]; conditions: max 1 µM
Procedure, shortened: as §1

AZD4320 = compound: CN(CC[C@H](CSC1=CC=CC=C1)NC2=C(C=C(C=C2)S(=O)(=O)NC(=O)C3=CC=C(C=C3)N4CCC(CC4)[C@H](C5=CC=CC=C5C6=CC=C(C=C6)Cl)O)S(=O)(=O)C(F)(F)F)CCO [AZD4320]; conditions: max 1 µM
Procedure, shortened: as §1

AZD7648 = compound: Cc1cc2ncnn2cc1Nc1ncc2c(n1)n(C1CCOCC1)c(=O)n2C [AZD7648]; conditions: max 10 µM
Procedure, shortened: as §1

AZD2811 = compound: CCN(CCO)CCCOc1ccc2c(Nc3cc(CC(=O)Nc4cccc(F)c4)[nH]n3)ncnc2c1 [AZD2811]; conditions: max 1 µM
Procedure, shortened: as §1

Venetoclax = compound: CC1(C)CCC(CN2CCN(c3ccc(C(=O)NS(=O)(=O)c4ccc(NCC5CCOCC5)c([N+](=O)[O-])c4)c(Oc4cnc5[nH]ccc5c4)c3)CC2)=C(c2ccc(Cl)cc2)C1 [Venetoclax]; conditions: max 1 µM
Procedure, shortened: as §1

MK-2206 = compound: NC1(c2ccc(-c3nc4ccn5c(=O)[nH]nc5c4cc3-c3ccccc3)cc2)CCC1 [MK-2206]; conditions: max 10 µM
Procedure, shortened: as §1

AZD6738 = compound: C[C@@H]1COCCN1C2=NC(=NC(=C2)C3(CC3)[S@](=N)(=O)C)C4=C5C=CNC5=NC=C4 [AZD6738]; conditions: max 10 µM
Procedure, shortened: as §1

Doxorubicin = compound: COc1cccc2c1C(=O)c1c(O)c3c(c(O)c1C2=O)C[C@@](O)(C(=O)CO)C[C@@H]3O[C@H]1C[C@H](N)[C@H](O)[C@H](C)O1 [Doxorubicin]; conditions: max 1 µM
Procedure, shortened: as §1

Capivasertib = compound: C1CN(CCC1(C(=O)N[C@@H](CCO)C2=CC=C(C=C2)Cl)N)C3=NC=NC4=C3C=CN4 [Capivasertib]; conditions: max 10 µM
Procedure, shortened: as §1

Olaparib = compound: O=C(c1cc(Cc2n[nH]c(=O)c3ccccc23)ccc1F)N1CCN(C(=O)C2CC2)CC1 [Olaparib]; conditions: max 10 µM
Procedure, shortened: as §1

Selumetinib = compound: Cn1cnc2c(F)c(Nc3ccc(Br)cc3Cl)c(C(=O)NOCCO)cc21 [Selumetinib]; conditions: max 10 µM
Procedure, shortened: as §1

| Cell Line | IC50, cell viability 72 h (SN-38) | IC50, cell viability 72 h (AZD1390) | IC50, cell viability 72 h (Taselisib) | IC50, cell viability 72 h (AZD0156) | IC50, cell viability 72 h (Dasatinib) | IC50, cell viability 72 h (AZD8186) | IC50, cell viability 72 h (AZD5153) | IC50, cell viability 72 h (Prexasertib) | IC50, cell viability 72 h (Alisertib) | IC50, cell viability 72 h (AZD5991) | IC50, cell viability 72 h (Lapatinib) | IC50, cell viability 72 h (SG3199) | IC50, cell viability 72 h (AZD1775) | IC50, cell viability 72 h (Palbociclib) | IC50, cell viability 72 h (Crizotinib) | IC50, cell viability 72 h (Gefitinib) | IC50, cell viability 72 h (Trametinib) | IC50, cell viability 72 h (Savolitinib) | IC50, cell viability 72 h (AZD4320) | IC50, cell viability 72 h (AZD7648) | IC50, cell viability 72 h (AZD2811) | IC50, cell viability 72 h (Venetoclax) | IC50, cell viability 72 h (MK-2206) | IC50, cell viability 72 h (AZD6738) | IC50, cell viability 72 h (Doxorubicin) | IC50, cell viability 72 h (Capivasertib) | IC50, cell viability 72 h (Olaparib) | IC50, cell viability 72 h (Selumetinib) |
| --- | --- | --- | --- | --- | --- | --- | --- | --- | --- | --- | --- | --- | --- | --- | --- | --- | --- | --- | --- | --- | --- | --- | --- | --- | --- | --- | --- | --- |
| HCC1500 (Breast Carcinoma) | 213 nM | > 300 nM | > 10000 nM | > 3000 nM | > 2000 nM | > 3000 nM | > 1000 nM | > 1000 nM | > 10000 nM | > 1000 nM | > 10000 nM | > 1 nM | 2900 nM | > 10000 nM | > 10000 nM | > 10000 nM | > 1000 nM | > 1000 nM | 45.2 nM | > 10000 nM | > 1000 nM | 291 nM | > 10000 nM | > 10000 nM | > 1000 nM | > 10000 nM | > 10000 nM | > 10000 nM |
| HCC1937 (Breast Carcinoma) | > 300 nM | > 300 nM | 9150 nM | > 3000 nM | > 2000 nM | > 3000 nM | > 1000 nM | 318 nM | > 10000 nM | > 1000 nM | > 10000 nM | > 1 nM | 643 nM | > 10000 nM | > 10000 nM | > 10000 nM | > 1000 nM | > 1000 nM | > 1000 nM | > 10000 nM | > 1000 nM | > 1000 nM | > 10000 nM | > 10000 nM | > 1000 nM | > 10000 nM | > 10000 nM | > 10000 nM |
| KOPN-8 (B-Lymphoblastic Leukemia) | 2.7 nM | > 300 nM | > 10000 nM | > 3000 nM | > 2000 nM | > 3000 nM | 28.5 nM | 19.8 nM | 23.4 nM | 43.4 nM | > 10000 nM | > 1 nM | 314 nM | 2620 nM | 2770 nM | > 10000 nM | 36.9 nM | > 1000 nM | 11 nM | > 10000 nM | 37.7 nM | 50 nM | 8590 nM | 725 nM | 106 nM | 4980 nM | 6850 nM | 6210 nM |
| LC-1-sq (Squamous Cell Lung Carcinoma) | > 300 nM | > 300 nM | > 10000 nM | > 3000 nM | > 2000 nM | > 3000 nM | 490 nM | 16.4 nM | > 10000 nM | > 1000 nM | > 10000 nM | > 1 nM | 294 nM | > 10000 nM | > 10000 nM | > 10000 nM | > 1000 nM | > 1000 nM | > 1000 nM | > 10000 nM | > 1000 nM | > 1000 nM |  | 2130 nM | > 1000 nM | > 10000 nM | > 10000 nM | > 10000 nM |
